Earlier results on 1 compound are cited in US20240042038A1, “FORMULATIONS OF CABAZITAXEL” (Zhuhai Beihai Biotech Co., Ltd., priority 2020, published 2024).

Structures are written as SMILES.

As to `CO[C@H]1C(=O)[C@]2(C)[C@@H](OC)C[C@H]3OC[C@@]3(OC(C)=O)[C@H]2[C@H](OC(=O)c2ccccc2)[C@]2(O)C[C@H](OC(=O)[C@H](O)[C@@H](NC(=O)OC(C)(C)C)c3ccccc3)C(C)=C1C2(C)C` [Cabazitaxel, cabazitaxel], the solubility in alcohol result is reported as “soluble” and the solubility in water result was “practically insoluble”.
